From the supplement of paper PMC10307832

Assays:
Assay in all cases: relative viability (nuclei count vs DMSO), 5 days (fraction); higher = more cells survive
CX-5461 = compound: Cc1cnc(CNC(=O)c2c(=O)c3ccc(N4CCCN(C)CC4)nc3n3c2sc2ccccc23)cn1 [CX-5461]
In short: (§1)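 Hoechst staining, done together with fixation and permeabilisation, marked nuclei for 4× imaging and MetaXpress counting. This followed 5 days without medium change after lung cancer cell lines, kept overnight at 37 °C in 1536-well plates, were pinned with five library-drug doses (not always all listed) spaced by √10 on vehicle-anchored plates. Viability is the ratio of treated-well to vehicle-well nuclei, expressed as a median across plates. Plates passed only at control CV below 25% with at least one doubling.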

IMD-0354 = compound: O=C(Nc1cc(C(F)(F)F)cc(C(F)(F)F)c1)c1cc(Cl)ccc1O [IMD-0354]
In short: as §1

CX-5461 + Navitoclax = compound: Cc1cnc(CNC(=O)c2c(=O)c3ccc(N4CCCN(C)CC4)nc3n3c2sc2ccccc23)cn1 [CX-5461] + CC1(C)CCC(c2ccc(Cl)cc2)=C(CN2CCN(c3ccc(C(=O)NS(=O)(=O)c4ccc(N[C@H](CCN5CCOCC5)CSc5ccccc5)c(S(=O)(=O)C(F)(F)F)c4)cc3)CC2)C1 [Navitoclax] (partner 0.5 µM)
In short: (§2)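 A single step with final 0.05% Triton X-100, 1% formaldehyde and 1 ug/ml Hoechst fixed the cells and stained nuclei 5 days after treatment. Lung cancer cell lines in 1536-well plates had been treated by pin tool the day after seeding with one drug alone or a fixed anchor-drug dose plus five library-drug doses (not always all listed) in √10 steps, and nuclei were counted on 4× images. Relative viability is the ratio of nuclei in treated wells to nuclei in vehicle wells, taken as the median of duplicate plates.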

IMD-0354 + Phenformin = compound: O=C(Nc1cc(C(F)(F)F)cc(C(F)(F)F)c1)c1cc(Cl)ccc1O [IMD-0354] + N=C(N)NC(=N)NCCc1ccccc1 [Phenformin] (partner 250 µM)
In short: as §2

Cell Line | relative viability (CX-5461; 0.01 µM) | relative viability (CX-5461; 0.03162 µM) | relative viability (CX-5461; 0.1 µM) | relative viability (CX-5461; 0.3162 µM) | relative viability (CX-5461; 1 µM) | relative viability (IMD-0354; 0.04 µM) | relative viability (IMD-0354; 0.1265 µM) | relative viability (IMD-0354; 0.4 µM) | relative viability (IMD-0354; 1.265 µM) | relative viability (IMD-0354; 4 µM) | relative viability (CX-5461 + Navitoclax; first compound 0.01 µM) | relative viability (CX-5461 + Navitoclax; first compound 0.03162 µM) | relative viability (CX-5461 + Navitoclax; first compound 0.1 µM) | relative viability (CX-5461 + Navitoclax; first compound 0.3162 µM) | relative viability (CX-5461 + Navitoclax; first compound 1 µM) | relative viability (IMD-0354 + Phenformin; first compound 0.04 µM) | relative viability (IMD-0354 + Phenformin; first compound 0.1265 µM) | relative viability (IMD-0354 + Phenformin; first compound 0.4 µM) | relative viability (IMD-0354 + Phenformin; first compound 1.265 µM) | relative viability (IMD-0354 + Phenformin; first compound 4 µM)
BEN | 1.04 | 1 | 1.06 | 0.979 | 0.937 | 1.22 | 0.903 | 0.64 | 0.463 | 0.277 | 0.0792 | 0.0627 | 0.052 | 0.0668 | 0.066 | 0.248 | 0.267 | 0.229 | 0.179 | 0.174
EMC-BAC-2 | 0.962 | 0.909 | 0.769 | 0.818 | 0.488 | 1.02 | 0.962 | 0.675 | 0.425 | 0.383 | 1.17 | 1.29 | 1.21 | 1.13 | 1.14 | 0.52 | 0.441 | 0.24 | 0.155 | 0.218
LU99A | 0.974 | 0.95 | 1.23 | 0.603 | 0.356 | 0.726 | 0.95 | 0.788 | 0.326 | 0.236 | 0.764 | 0.938 | 0.741 | 0.676 | 0.898 | 0.529 | 0.826 | 0.417 | 0.218 | 0.265
NCI-H2347 | 1.02 | 1.04 | 1.04 | 0.937 | 0.908 | 1.1 | 1.02 | 0.738 | 0.511 | 0.4 | 0.968 | 0.864 | 0.858 | 0.601 | 0.73 | 0.396 | 0.381 | 0.272 | 0.149 | 0.218
NCI-H1993 | 1.06 | 1.08 | 1.01 | 0.952 | 0.993 | 0.939 | 0.89 | 0.648 | 0.555 | 0.567 | 0.946 | 1 | 0.887 | 0.871 | 0.922 | 0.48 | 0.495 | 0.438 | 0.465 | 0.524
NCI-H322M | 0.923 | 0.987 | 1.03 | 0.491 | 0.731 | 0.992 | 1.09 | 0.805 | 0.406 | 0.331 | 1.34 | 1.31 | 1.12 |  | 1.17 | 0.865 | 0.796 | 0.378 | 0.277 | 0.375
NCI-H838 | 0.983 | 1 | 0.992 | 0.78 | 0.806 | 0.977 | 0.954 | 0.565 | 0.432 | 0.27 | 1.22 | 1.24 | 1.21 | 1.06 | 0.897 | 0.685 | 0.448 | 0.358 | 0.234 | 0.207
HARA | 1.01 | 1.03 | 0.957 | 0.728 | 0.713 | 1.17 | 0.88 | 0.537 | 0.154 | 0.205 | 1.11 | 1.23 | 1.17 | 1.08 | 1.12 | 0.422 | 0.47 | 0.154 | 0.0947 | 0.0925
NCI-H2087 | 1.26 | 1.16 | 1.02 | 1.01 | 0.717 | 1.02 | 1 | 0.382 | 0.11 | 0.152 | 1.24 | 1.11 | 0.997 | 1.12 | 0.797 | 0.481 | 0.258 | 0.206 | 0.119 | 0.128
NCI-H1437 | 1.03 | 0.97 | 0.894 | 1.03 | 0.877 | 1.12 | 0.941 | 0.626 | 0.32 | 0.244 | 1.09 | 1.1 |  | 1.03 | 0.928 | 0.317 | 0.279 | 0.195 | 0.15 | 0.2
NCI-H1792 | 1.01 | 0.894 | 0.904 | 1.05 | 0.502 | 0.969 | 0.847 | 0.553 | 0.412 | 0.434 | 0.657 | 0.674 | 0.696 | 0.692 | 0.468 | 0.175 | 0.225 | 0.226 | 0.167 | 0.139
ChaGo-K-1 | 1.02 | 0.967 | 1.04 | 0.571 | 0.552 | 1.12 | 1.08 | 0.751 | 0.339 | 0.267 | 1.32 | 0.947 | 0.752 | 0.413 | 0.618 | 0.584 | 0.544 | 0.318 | 0.225 | 0.199
COR-L23 | 1.03 | 1.07 | 0.758 | 0.973 | 0.583 | 0.922 | 1 | 0.422 | 0.13 | 0.14 | 0.966 | 0.981 | 0.786 | 0.978 | 0.417 | 0.466 | 0.373 | 0.263 | 0.108 | 0.0986
COR-L 105 | 0.933 | 0.894 | 0.82 | 0.607 | 0.508 | 1.05 | 0.832 | 0.738 | 0.463 | 0.293 | 0.891 | 0.734 | 0.768 | 0.801 | 0.689 | 0.659 | 0.462 | 0.39 | 0.183 | 0.211
NCI-H1395 | 0.978 | 0.853 | 0.816 | 0.475 | 0.588 | 1.15 | 0.989 | 0.823 | 0.324 | 0.296 | 1.17 | 0.993 | 1.16 | 0.964 | 0.63 | 0.489 | 0.452 | 0.382 | 0.313 | 0.267
201T | 0.985 | 1 | 0.986 | 0.985 | 0.936 | 1.1 | 1.15 | 0.563 | 0.725 | 0.324 | 1.18 | 1.22 | 1.21 | 1.18 | 1.19 | 0.524 | 0.465 | 0.322 | 0.286 | 0.303
